Experimental data reported in PubChem BioAssay (NCI).
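Protocol summary: plate cells (96-well), add compound at 5 concentrations, incubate 48 h, interpolate endpoints linearly. GI50 marks 50% less growth. TGI: concentration producing complete growth inhibition.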

Legend:
Assay in all cases: DTP human tumour cell line panel, 48 h
RPMI-8226 leukemia = test system: RPMI-8226 leukemia
HL-60(TB) leukemia = test system: HL-60(TB) leukemia
UO-31 renal = test system: UO-31 renal
K-562 leukemia = test system: K-562 leukemia
OVCAR-5 ovarian = test system: OVCAR-5 ovarian
IGROV1 ovarian = test system: IGROV1 ovarian
TK-10 renal = test system: TK-10 renal
SF-268 CNS = test system: SF-268 CNS
NCI-H23 lung = test system: NCI-H23 lung
MCF7 breast = test system: MCF7 breast

Row | SMILES | TGI (RPMI-8226 leukemia) [µM] | TGI (HL-60(TB) leukemia) [µM] | TGI (UO-31 renal) [µM] | TGI (K-562 leukemia) [µM] | TGI (OVCAR-5 ovarian) [µM] | TGI (IGROV1 ovarian) [µM] | TGI (TK-10 renal) [µM] | TGI (SF-268 CNS) [µM] | TGI (NCI-H23 lung) [µM] | GI50 (RPMI-8226 leukemia) [µM] | GI50 (MCF7 breast) [µM] | TGI (MCF7 breast) [µM] | GI50 (UO-31 renal) [µM] | GI50 (K-562 leukemia) [µM] | GI50 (OVCAR-5 ovarian) [µM] | GI50 (IGROV1 ovarian) [µM] | GI50 (TK-10 renal) [µM] | GI50 (SF-268 CNS) [µM] | GI50 (NCI-H23 lung) [µM] | GI50 (HL-60(TB) leukemia) [µM]
1 | C=C1C(=O)C23[C@H](O)C1CC[C@H]2[C@]12COC3(O)[C@@H](O)[C@@H]1C(C)(C)CC[C@@H]2O | 29.3 | 47.3 | 29 | 15.6 | 32.7 | 38.7 | 31 | 18.3 | 29.8 |  |  |  |  |  |  |  |  |  |  | 
2 | C=C1C(=O)O[C@H]2[C@H]1CC/C(COC(=O)N[C@H]1C[C@H](O[C@H]3C[C@](O)(C(=O)CO)Cc4c(O)c5c(c(O)c43)C(=O)c3c(OC)cccc3C5=O)O[C@@H](C)[C@H]1O)=C\CC[C@@]1(C)O[C@@H]21 | 3.97 |  | > 50 | 11.4 | 18 | 19 | > 50 | 24.6 | 18.6 | 1.33 | 1.86 | 9.86 | > 50 | 1.58 | 6.91 | 5.77 | 9 | 6.72 | 8.36 | 
3 | COc1ccc2c(c1)C(=O)/C(=C/c1cccc(OCC(=O)Nc3nc(C)c(C)s3)c1)O2 | 0.587 | 0.175 | 0.0378 |  | 1.14 |  | 2.8 | 0.0743 | 0.715 | 0.104 | 1.63 | 3.48 | 0.0222 | 0.24 | 0.205 |  | 1.03 | 0.0281 | 0.0547 | 0.0444
4 | CC(=O)c1ccc(NC(=O)C(=O)C(C(=O)/C=C/c2ccccc2)C2OC(=O)c3ccccc32)cc1 (stereo not drawn) | > 100 | > 100 | > 100 | > 100 | > 100 | > 100 | > 100 | > 100 | > 100 |  |  |  |  |  |  |  |  |  |  | 
5 | CC(=O)OC(C(=O)[O][Sn]([CH3])([CH3])[CH3])c1ccccc1 (stereo not drawn) | > 100 | > 100 | > 100 | > 100 | > 100 | > 100 | > 100 | > 100 | > 100 | > 100 |  |  | > 100 | > 100 | > 100 | > 100 | > 100 | > 100 | > 100 | > 100
6 | CCOc1ccc(N=C(NC(=O)c2ccccc2)SC)cc1 | > 100 | > 100 | > 100 | > 100 | > 100 | > 100 | > 100 | > 100 | > 100 |  |  |  |  |  |  |  |  |  |  | 
7 | COC/N=C(\NC#N)NCOC | > 70.8 | > 100 | > 100 | > 100 | > 100 | > 100 | > 100 | > 100 | > 100 |  |  |  |  |  |  |  |  |  |  | 
8 | COc1ccccc1-c1cc(=O)c2cc(C)c(C)c(C(=O)O)c2o1 | > 100 | > 100 | > 100 | > 100 | > 100 | > 100 | > 100 | > 100 | > 100 |  |  |  |  |  |  |  |  |  |  | 
9 | CCCC1(CN2c3ccccc3Sc3ccc(Cl)cc32)CCN(CC)C1 (stereo not drawn) | 5.73 |  | 2.97 |  | 3.48 | 3.69 | 3.32 | 3.88 | 3.55 | 2.59 | 1.86 | 3.5 | 1.51 |  | 1.71 | 1.92 | 1.7 | 1.86 | 1.75 | 
10 | C=C1C(=O)O[C@H]2[C@H]1CC/C(COC(=O)NCc1ccc(Cn3c(=O)sn(CCCCC)c3=O)cc1)=C\CC[C@@]1(C)O[C@@H]21 |  | 4.12 | 2.8 |  | 4.91 | 4.8 | 3.66 | 3.97 | 4.1 |  |  |  | 1.46 |  | 2.01 | 2.11 | 1.96 | 1.88 | 1.94 | 1.1
11 | NC(=O)c1cccnc1 | > 100 | > 100 |  | > 100 | > 100 |  | > 100 | > 100 | > 100 | > 100 | > 100 | > 100 |  | > 100 | > 100 |  | > 100 | > 100 | > 100 | > 100
12 | COc1ccc(/C=C(\NC(=O)c2ccccc2)c2nc3ccccc3[nH]2)cc1OC | > 100 | > 100 | > 100 | > 100 | > 100 | > 100 | > 100 | > 100 | > 100 |  |  |  |  |  |  |  |  |  |  | 
13 | CCOc1ccc(N=C2NC(=O)C(CC(=O)Nc3ccccc3[N+](=O)[O-])S2)cc1 (stereo not drawn) | > 100 | > 100 | > 100 | > 100 | > 100 | > 100 | > 100 | > 100 | > 100 |  |  |  |  |  |  |  |  |  |  | 
14 | O=C1CCC2(c3ccccc3)Nc3ccccc3N12 (stereo not drawn) | > 100 | > 100 | > 100 | > 100 | > 100 | > 100 | > 100 | > 100 | > 100 |  |  |  |  |  |  |  |  |  |  | 
15 | CCOc1cccc2c1N[S@@](=O)S2 | > 100 | > 100 | > 100 | > 100 |  | > 100 | > 100 | > 100 | > 100 |  |  |  |  |  |  |  |  |  |  | 
16 | CO[C@H]1/C=C/O[C@@]2(C)Oc3c(C)c(O)c4c(O)c(c(/C=N/N5CCN(C)CC5)c(O)c4c3C2=O)NC(=O)/C(C)=C\C=C\[C@H](C)[C@H](O)[C@@H](C)[C@@H](O)[C@@H](C)[C@H](OC(C)=O)[C@@H]1C | > 100 |  | > 100 | > 100 | > 100 | > 100 | > 100 |  |  |  |  | > 100 |  |  |  |  |  |  |  | 
17 | CCC1=CCN(c2cc(C)ccn2)OC1c1ccccc1 (stereo not drawn) | 67.1 | 41.8 | > 100 | > 100 | > 100 | > 100 |  | > 100 | > 100 |  |  |  |  |  |  |  |  |  |  | 
18 | COc1cc2c(c3c1c(=O)c1ccccc1n3C)C=CC(C)(C)O2 | > 100 | > 100 | > 100 | > 100 | > 100 | > 100 | > 100 | > 100 | > 100 |  |  |  |  |  |  |  |  |  |  | 
